Patent US20110294892A1, “Use of histone deacetylase inhibitors for the care of Philadephia-negative myeloproliferative syndromes” (priority 2008, published 2011)
Where two headings read alike, the source gives them in different places. Values belong to the compound of their own block, whether it stands above or below them.

What was measured:
[1] = test system: JAK2^V617F mutated human cell line SET-2; experiment: Cloning efficiency of the human cell line SET-2 in methyl-cellulose; format: cell-based; details: SET-2, 336 h; for EC50: read-out: EC50 (concentration required to reduce of 50% the number of clones)
From the text: For each experimental point 2 Petri dishes were done.

rhHDAC1 = rhHDAC1 (Homo sapiens, UniProt Q13547); experiment: biochemical
Protocol: Values for rhHDAC1 inhibition are also reported: the enzyme was obtained from BPS Biosciences (cat n. 50001) and the test was carried out using a BIOMOL kit, according to supplier instructions.

[2] = test system: patients with JAK2^V617F mutation suffering from myeloproliferative syndromes (PV, ET, IM); experiment: Phase II open clinical study in JAK2V617F-positive Philadelphia-negative myeloproliferative syndromes; format: in vivo, human; details: 50 mg twice per day
From the text: Clinical study of ITF2357 in patients suffering from Philadelphia-negative myeloproliferative syndromes. Design: phase II, open, non-randomized study.
Population in the study: 27 patients with the JAK2^V617F mutation suffering from myeloproliferative syndromes not adequately controlled by the standard pharmacological treatment (hydroxyurea).
Duration of the treatment: up to a maximum of 24 weeks of continual administration.
Secondary objective: to evaluate the effect of the treatment on the mutated JAK2 allele burden by quantitative PCR.

[3] = test system: lipopolysaccharide (LPS)-stimulated cultured human peripheral blood mononuclear cells (PBMCs); details: cited from earlier work
[4] = test system: LPS-induced serum TNFα and IFNγ; details: mice, oral administration of 1.0 to 10 mg/kg; cited from earlier work
[5] = test system: stem cells obtained from patients suffering from PV or ET; details: cited from earlier work

Sequence of rhHDAC1 (Q13547 whole entry): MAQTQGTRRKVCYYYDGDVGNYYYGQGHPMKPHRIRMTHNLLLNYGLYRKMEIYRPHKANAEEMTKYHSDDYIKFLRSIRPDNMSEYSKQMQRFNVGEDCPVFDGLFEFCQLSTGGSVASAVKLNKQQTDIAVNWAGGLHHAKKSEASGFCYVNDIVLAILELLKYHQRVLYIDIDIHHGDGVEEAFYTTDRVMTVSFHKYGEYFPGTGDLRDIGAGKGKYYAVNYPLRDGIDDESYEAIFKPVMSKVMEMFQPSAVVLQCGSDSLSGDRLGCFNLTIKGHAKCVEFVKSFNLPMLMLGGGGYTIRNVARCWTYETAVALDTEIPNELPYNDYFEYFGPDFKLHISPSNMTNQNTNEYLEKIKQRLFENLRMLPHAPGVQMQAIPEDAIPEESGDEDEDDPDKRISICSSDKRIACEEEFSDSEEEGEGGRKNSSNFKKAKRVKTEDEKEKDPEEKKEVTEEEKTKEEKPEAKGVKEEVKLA

Structure (SMILES): CC(=O)SCC(=O)c1ccc(NS(=O)(=O)c2ccc(OCCCN(C)C)cc2)nc1 [KD-5170]
- inhibition at 1 µM ([1]; read-out: inhibition of clones formation at 1 μM): < 20%
- IC50 (rhHDAC1): 24 nM

- EC50 [1]: 1200 nM
Structure (SMILES): Nc1ccccc1NC(=O)c1ccc(CNc2nccc(-c3cccnc3)n2)cc1 [MGCD-0103]

- EC50 [1]: 1820 nM
Structure (SMILES): Nc1ccccc1NC(=O)c1ccc(CNC(=O)OCc2cccnc2)cc1 [SNDX-275]

- EC50 [1]: 28 to 54 nM
Structure (SMILES): CCN(CC)Cc1ccc2cc(COC(=O)Nc3ccc(C(=O)NO)cc3)ccc2c1 [ITF2357, Diethyl-[6-(4-hydroxycarbamoyl-phenylcarbamoyloxymethyl)-naphthalen-2-ylmethyl]-ammonium chloride]
- volume of the spleen ([2]; 4 to 12 weeks, patients who initially exhibited splenomegaly): significant reduction
- complete or partial response, share of cases ([2]; preliminary data, treatment 4 to 12 weeks, PV, ET or myelofibrosis patients): approximately 60%
- IC50 ([3]; read-out: concentration reducing by 50% the production of interferon-γ (IFNγ)): 25 nM
- IC50 ([3]; read-out: concentration reducing by 50% the release of intracellular interleukin (IL)-1α): 12 nM
- reduction of LPS-induced serum IFNγ [4]: more than 50%
- reduction of LPS-induced serum TNFα [4]: more than 50%
- concentrations inhibiting the clonogenic activity of stem cells [5]: sub-micromolar
